Results from ChEMBL document CHEMBL6092203, “Discovery of Novel PROTAC-Based HPK1 Degraders with High Potency and Selectivity for Cancer Immunotherapy” (J Med Chem, 2024).

Experiments:
[1] = biological target: T1, Protein cereblon/Mitogen-activated protein kinase kinase kinase kinase 1 (Homo sapiens, UniProt Q92918+Q96SW2); test: PROTAC activity at CRBN/HPK1 in human Jurkat cells assessed as maximum degradation incubated for 24 hrs by Western blotting analysis; type: cell-based
Target sequence in this assay (Q92918 whole entry, looked up): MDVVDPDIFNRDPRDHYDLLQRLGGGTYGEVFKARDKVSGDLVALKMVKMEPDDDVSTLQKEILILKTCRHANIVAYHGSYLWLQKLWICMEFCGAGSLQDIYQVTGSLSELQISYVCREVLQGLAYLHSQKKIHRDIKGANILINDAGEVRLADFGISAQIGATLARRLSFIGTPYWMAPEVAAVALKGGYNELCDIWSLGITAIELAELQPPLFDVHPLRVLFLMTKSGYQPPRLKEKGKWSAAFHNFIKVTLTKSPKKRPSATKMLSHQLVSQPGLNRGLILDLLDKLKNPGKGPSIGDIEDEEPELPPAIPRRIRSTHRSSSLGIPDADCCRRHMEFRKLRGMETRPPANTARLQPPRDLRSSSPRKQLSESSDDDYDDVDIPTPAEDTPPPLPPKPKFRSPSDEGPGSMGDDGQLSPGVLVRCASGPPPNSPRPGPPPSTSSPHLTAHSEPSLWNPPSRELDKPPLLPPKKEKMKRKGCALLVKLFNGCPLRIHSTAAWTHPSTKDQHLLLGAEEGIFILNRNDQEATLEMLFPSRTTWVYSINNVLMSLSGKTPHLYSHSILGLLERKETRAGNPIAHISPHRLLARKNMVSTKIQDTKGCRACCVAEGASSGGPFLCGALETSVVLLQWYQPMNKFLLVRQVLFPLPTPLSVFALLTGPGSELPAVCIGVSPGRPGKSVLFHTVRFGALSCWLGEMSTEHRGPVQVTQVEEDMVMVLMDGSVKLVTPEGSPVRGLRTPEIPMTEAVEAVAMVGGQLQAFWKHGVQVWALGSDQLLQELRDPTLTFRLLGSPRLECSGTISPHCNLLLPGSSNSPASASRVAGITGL
Target sequence in this assay (Q96SW2 whole entry, looked up): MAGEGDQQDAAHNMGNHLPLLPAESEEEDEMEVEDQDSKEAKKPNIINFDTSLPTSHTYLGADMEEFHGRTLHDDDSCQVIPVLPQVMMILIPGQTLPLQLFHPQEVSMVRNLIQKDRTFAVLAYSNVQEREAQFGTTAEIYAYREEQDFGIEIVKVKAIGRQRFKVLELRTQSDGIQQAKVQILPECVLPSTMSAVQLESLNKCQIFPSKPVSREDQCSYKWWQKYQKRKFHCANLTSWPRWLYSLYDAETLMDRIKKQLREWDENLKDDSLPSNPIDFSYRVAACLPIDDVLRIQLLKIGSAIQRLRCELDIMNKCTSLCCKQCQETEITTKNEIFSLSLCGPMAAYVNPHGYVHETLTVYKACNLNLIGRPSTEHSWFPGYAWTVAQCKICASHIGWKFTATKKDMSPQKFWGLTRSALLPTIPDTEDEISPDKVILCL

[2] = biological target: T1, Protein cereblon/Mitogen-activated protein kinase kinase kinase kinase 1; test: PROTAC activity at CRBN/HPK1 in human Jurkat cells incubated for 24 hrs by Western blotting analysis; type: cell-based
Target sequence in this assay (Q92918 whole entry): as the sequence (Q92918 whole entry, looked up) above
Target sequence in this assay (Q96SW2 whole entry): as the sequence (Q96SW2 whole entry, looked up) above

[3] = Half-life in mouse at 10 mg/kg measured upto 24 hrs by LC-MS analysis; type: ADME, organism-based; settings: in vivo
[4] = Oral bioavailability in mouse at 10 mg/kg measured upto 24 hrs by LC-MS analysis; type: ADME, organism-based; settings: in vivo
[5] = Half-life in mouse at 2 mg/kg, iv measured upto 24 hrs by LC-MS analysis; type: ADME, organism-based; settings: in vivo
[6] = Apparent volume of distribution in mouse at 2 mg/kg, iv measured upto 24 hrs by LC-MS analysis; type: ADME, organism-based; settings: in vivo
[7] = AUC in mouse at 10 mg/kg, po measured upto 24 hrs by LC-MS analysis; type: ADME, organism-based; settings: in vivo
[8] = Clearance in mouse at 2 mg/kg, iv measured upto 24 hrs by LC-MS analysis; type: ADME, organism-based; settings: in vivo
[9] = AUC in mouse at 2 mg/kg, iv measured upto 24 hrs by LC-MS analysis; type: ADME, organism-based; settings: in vivo
[10] = Cmax in mouse at 10 mg/kg, po measured upto 24 hrs by LC-MS analysis; type: ADME, organism-based; settings: in vivo
[11] = biological target: Mitogen-activated protein kinase kinase kinase kinase 1 (Homo sapiens, UniProt Q92918); test: Inhibition of HPK1 (unknown origin)
[12] = biological target: T2, Mitogen-activated protein kinase kinase kinase kinase 3 (Homo sapiens, UniProt Q8IVH8); test: Inhibition of GLK (unknown origin)
T2 sequence (Q8IVH8 whole entry): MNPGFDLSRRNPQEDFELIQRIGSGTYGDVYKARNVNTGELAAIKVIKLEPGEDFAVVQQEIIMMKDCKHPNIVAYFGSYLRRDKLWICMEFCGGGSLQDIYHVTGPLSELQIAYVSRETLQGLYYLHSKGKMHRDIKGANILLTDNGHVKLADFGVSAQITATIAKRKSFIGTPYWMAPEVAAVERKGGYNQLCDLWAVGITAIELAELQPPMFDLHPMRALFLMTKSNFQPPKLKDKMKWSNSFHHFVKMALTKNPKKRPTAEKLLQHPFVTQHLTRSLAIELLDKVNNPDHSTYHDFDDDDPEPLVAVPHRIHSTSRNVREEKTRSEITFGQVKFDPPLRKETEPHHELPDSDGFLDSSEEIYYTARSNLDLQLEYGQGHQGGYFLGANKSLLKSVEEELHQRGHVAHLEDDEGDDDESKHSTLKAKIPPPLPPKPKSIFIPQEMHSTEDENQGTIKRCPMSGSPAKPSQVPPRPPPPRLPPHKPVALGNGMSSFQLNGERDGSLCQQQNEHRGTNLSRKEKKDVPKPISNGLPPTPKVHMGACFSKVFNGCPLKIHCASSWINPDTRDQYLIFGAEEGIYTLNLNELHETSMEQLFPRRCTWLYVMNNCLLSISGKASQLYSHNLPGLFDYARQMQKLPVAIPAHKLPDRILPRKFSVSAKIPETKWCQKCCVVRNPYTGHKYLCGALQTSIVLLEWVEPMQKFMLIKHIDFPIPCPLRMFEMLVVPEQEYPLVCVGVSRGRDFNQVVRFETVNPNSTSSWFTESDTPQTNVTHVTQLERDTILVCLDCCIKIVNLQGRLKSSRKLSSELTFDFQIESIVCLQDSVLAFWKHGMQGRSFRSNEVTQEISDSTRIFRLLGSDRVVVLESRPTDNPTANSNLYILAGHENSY

Mitogen-activated protein kinase kinase kinase kinase 1, sequence (Q92918 whole entry): as the sequence (Q92918 whole entry, looked up) above

SMILES: CCN1CCC(n2cc(-c3c[nH]c4ncc(-c5cnc(OCCNC(=O)c6ccc(Cl)c(N7CCC(=O)NC7=O)c6)c(C)c5)nc34)cn2)CC1
- Emax [1]: 86%
- DC50 [2]: 55 nM

SMILES: O=C1CCN(c2cc(C(=O)N3CCC(CC4CCN(c5ccc(-c6cnc7[nH]cc(-c8cnn(CCO)c8)c7n6)cn5)CC4)CC3)ccc2Cl)C(=O)N1
- Emax [1]: 84%
- DC50 [2]: 29 nM

SMILES: O=C1CCN(c2cc(C(=O)N3CCC(CC4CCN(c5ccc(-c6cnc7[nH]cc(-c8cnn(CC9CC9)c8)c7n6)cn5)CC4)CC3)ccc2Cl)C(=O)N1
- Emax [1]: 52%
- DC50 [2]: 632 nM

SMILES: CCN1CCC(n2cc(-c3c[nH]c4ncc(-c5ccc(N6CCC(CC7CCCN(C(=O)c8ccc(Cl)c(N9CCC(=O)NC9=O)c8)CC7)CC6)nc5)nc34)cn2)CC1 (stereo not given)
- Emax [1]: 56%
- DC50 [2]: 385 nM

SMILES: CCN1CCC(n2cc(-c3c[nH]c4ncc(-c5ccc(N6CCC(CN7CCN(C(=O)c8ccc(Cl)c(N9CCC(=O)NC9=O)c8)CC7)CC6)nc5)nc34)cn2)CC1
- Emax [1]: 77%
- DC50 [2]: 2.1 nM

SMILES: CCN1CCC(n2cc(-c3c[nH]c4ncc(-c5ccc(N6CCC(F)(CN7CCN(C(=O)c8ccc(Cl)c(N9CCC(=O)NC9=O)c8)CC7)CC6)cc5)nc34)cn2)CC1
- Emax [1]: 58%
- DC50 [2]: 230 nM

SMILES: Cn1cc(-c2c[nH]c3ncc(-c4ccc(N5CCC(CC6CCN(C(=O)c7ccc(Cl)c(N8CCC(=O)NC8=O)c7)CC6)CC5)nc4)nc23)cn1
- half-life [3]: 3.35 h
- bioavailability [4]: 17.7%
- half-life [5]: 0.98 h
- Vz [6]: 0.701 L/kg
- AUC at 24 h [7]: 2210 ng·h/mL
- clearance [8]: 8.27 mL/min/kg
- Emax [1]: 93%
- Emax ([1]; tested as the 2H-labelled form): 89%
- DC50 [2]: 9.3 nM
- AUC at 24 h [9]: 4030 ng·h/mL
- Cmax [10]: 840 ng/mL

SMILES: O=C1CCN(c2cc(C(=O)N3CCC(CC4CCN(c5ccc(-c6cnc7[nH]cc(-c8cnn(CCF)c8)c7n6)cn5)CC4)CC3)ccc2Cl)C(=O)N1
- half-life [3]: 3.18 h
- bioavailability [4]: 25.1%
- half-life [5]: 2.35 h
- Vz [6]: 0.917 L/kg
- AUC at 24 h [7]: 9200 ng·h/mL
- clearance [8]: 4.5 mL/min/kg
- Emax [1]: 78%
- DC50 [2]: 5.3 nM
- AUC at 24 h [9]: 7400 ng·h/mL
- Cmax [10]: 4680 ng/mL

SMILES: CCN1CCC(n2cc(-c3c[nH]c4ncc(-c5ccc(N6CCC(OC7CCN(C(=O)c8ccc(Cl)c(N9CCC(=O)NC9=O)c8)CC7)CC6)cc5)nc34)cn2)CC1
- Emax [1]: 52%
- DC50 [2]: 386 nM

SMILES: CCN1CCC(n2cc(-c3c[nH]c4ncc(-c5ccc(N6CCC(CC7CCN(C(=O)c8ccc(Cl)c(N9CCC(=O)NC9=O)c8)CC7C)CC6)cc5)nc34)cn2)CC1 (stereo not given)
- Emax [1]: 66%
- DC50 [2]: 23.5 nM

SMILES: CCN1CCC(n2cc(-c3c[nH]c4ncc(-c5ccc(N6CCC(CC7CCN(C(=O)c8ccc(Cl)c(N9CCC(=O)NC9=O)c8)CC7)CC6)c(F)c5)nc34)cn2)CC1
- Emax [1]: 63%
- DC50 [2]: 176 nM

SMILES: O=C1CCN(c2cc(C(=O)N3CCC(CC4CCN(c5ccc(-c6cnc7[nH]cc(-c8cnn(C9CC9)c8)c7n6)cn5)CC4)CC3)ccc2Cl)C(=O)N1
- Emax [1]: 87%
- DC50 [2]: 52.3 nM

SMILES: CCN1CCC(n2cc(-c3c[nH]c4ncc(-c5ccc(N6CCC(CC7CCN(C(=O)c8ccc(Cl)c(N9CCC(=O)NC9=O)c8)CC7)CC6)nc5)nc34)cn2)CC1
- bioavailability [4]: 6.67%
- half-life [5]: 4.63 h
- Vz [6]: 1.03 L/kg
- AUC at 24 h [7]: 295 ng·h/mL
- clearance [8]: 27.5 mL/min/kg
- Emax [1]: 93%
- DC50 [2]: 1.2 nM
- AUC at 24 h [9]: 874 ng·h/mL
- Cmax [10]: 81.6 ng/mL

SMILES: O=C1CCN(c2cc(C(=O)N3CCC(CC4CCN(c5ccc(-c6cnc7[nH]cc(-c8cn[nH]c8)c7n6)cn5)CC4)CC3)ccc2Cl)C(=O)N1
- Emax [1]: 92%
- DC50 [2]: 32.9 nM

SMILES: CCN1CCC(n2cc(-c3c[nH]c4ncc(-c5cnc(OCC6CCOCC6)c(F)c5)nc34)cn2)CC1
- IC50 [11]: 2.67 nM
- IC50 [12]: 63.6 nM

SMILES: O=C1CCN(c2cc(C(=O)N3CCC(CC4CCN(c5ccc(-c6cnc7[nH]cc(-c8cnn(C(F)F)c8)c7n6)cn5)CC4)CC3)ccc2Cl)C(=O)N1
- Emax [1]: 67%
- DC50 [2]: 23.9 nM

SMILES: [2H]C([2H])([2H])n1cc(-c2c[nH]c3ncc(-c4ccc(N5CCC(CC6CCN(C(=O)c7ccc(Cl)c(N8CCC(=O)NC8=O)c7)CC6)CC5)nc4)nc23)cn1
- DC50 [2]: 12.7 nM

SMILES: CCN1CCC(n2cc(-c3c[nH]c4ncc(-c5ccc(N6CCC(C)(CN7CCN(C(=O)c8ccc(Cl)c(N9CCC(=O)NC9=O)c8)CC7)CC6)cc5)nc34)cn2)CC1
- Emax [1]: 81%
- DC50 [2]: 52.4 nM

SMILES: CCN1CCC(n2cc(-c3c[nH]c4ncc(-c5ccc(N6CCC(OC7CCN(C(=O)c8ccc(Cl)c(N9CCC(=O)NC9=O)c8)CC7)CC6)c(C)c5)nc34)cn2)CC1
- Emax [1]: 73%
- DC50 [2]: 29.3 nM

SMILES: CCn1cc(-c2c[nH]c3ncc(-c4ccc(N5CCC(CC6CCN(C(=O)c7ccc(Cl)c(N8CCC(=O)NC8=O)c7)CC6)CC5)nc4)nc23)cn1
- Emax [1]: 87%
- DC50 [2]: 29.2 nM

SMILES: CCN1CCC(n2cc(-c3c[nH]c4ncc(-c5ccc(N6CCC(CC7CCN(C(=O)c8ccc(C)c(N9CCC(=O)NC9=O)c8)CC7)CC6)cc5)nc34)cn2)CC1
- Emax [1]: 53%
- DC50 [2]: 616 nM

SMILES: CCN1CCC(n2cc(-c3c[nH]c4ncc(-c5ccc(N6CCC(OC7CCN(C(=O)c8ccc(Cl)c(N9CCC(=O)NC9=O)c8)CC7)CC6)c(F)c5)nc34)cn2)CC1
- Emax [1]: 78%
- DC50 [2]: 7.2 nM

SMILES: O=C1CCN(c2cc(C(=O)N3CCC(CC4CCN(c5ccc(-c6cnc7[nH]cc(-c8cnn([C@@H]9CCOC9)c8)c7n6)cn5)CC4)CC3)ccc2Cl)C(=O)N1
- Emax [1]: 84%
- DC50 [2]: 83 nM

SMILES: COCCn1cc(-c2c[nH]c3ncc(-c4ccc(N5CCC(CC6CCN(C(=O)c7ccc(Cl)c(N8CCC(=O)NC8=O)c7)CC6)CC5)nc4)nc23)cn1
- Emax [1]: 76%
- DC50 [2]: 30.6 nM

SMILES: O=C1CCN(c2cc(C(=O)N3CCC(CC4CCN(c5ccc(-c6cnc7[nH]cc(-c8cnn(CC(F)F)c8)c7n6)cn5)CC4)CC3)ccc2Cl)C(=O)N1
- Emax [1]: 81%
- DC50 [2]: 18.7 nM

SMILES: CC(C)(C#N)n1cc(-c2c[nH]c3ncc(-c4ccc(N5CCC(CC6CCN(C(=O)c7ccc(Cl)c(N8CCC(=O)NC8=O)c7)CC6)CC5)nc4)nc23)cn1
- Emax [1]: 64%
- DC50 [2]: 214 nM
